EP2408450B1, “ALPHA-(N-SULFONAMIDO)ACETAMIDE COMPOUND AS AN INHIBITOR OF BETA AMYLOID PEPTIDE PRODUCTION” (Bristol-Myers Squibb Company, priority 2009, dated 2010)

Molecular target: T1, human pregnane-X receptor (Homo sapiens, UniProt O75469)
T1 construct: expressed in transfected cells; host or cells: HepG2 cells, transiently transfected with PXR-pcDNA3 and CYP3A-Luc
T1 sequence (O75469 1-434): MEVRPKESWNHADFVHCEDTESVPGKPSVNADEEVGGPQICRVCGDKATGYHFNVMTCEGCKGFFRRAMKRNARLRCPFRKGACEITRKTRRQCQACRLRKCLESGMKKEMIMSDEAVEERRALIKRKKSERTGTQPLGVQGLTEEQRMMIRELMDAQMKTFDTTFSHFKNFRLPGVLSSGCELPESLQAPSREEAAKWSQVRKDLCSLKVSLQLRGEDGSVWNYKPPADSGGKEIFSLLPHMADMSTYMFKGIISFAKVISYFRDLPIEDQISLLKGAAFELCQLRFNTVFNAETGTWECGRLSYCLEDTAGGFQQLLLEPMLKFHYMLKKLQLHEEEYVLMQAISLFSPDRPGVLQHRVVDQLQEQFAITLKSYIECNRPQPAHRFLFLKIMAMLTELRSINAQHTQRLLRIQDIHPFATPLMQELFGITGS
Experiment: PXR transactivation assay (CYP3A-Luc reporter in HepG2 cells)
Format: cell-based
Conditions: hPXR transactivation assay
Excerpt: Pregnane X receptor (PXR) is a nuclear hormone receptor principally responsible for the induction of cytochrome P450 (CYP) 3A4, which plays a major role in metabolizing many clinically prescribed drugs. It is well known that the induction of CYP3A4 can cause either drug-drug interaction by increasing the metabolic clearance of co-administered CYP3A4 substrates (Bertilsson, G. et al., Proc. Nat. Acad. Sci. USA, 95:12208-12213 (1998); Lehmann, J.M. et al., J. Clin. Invest., 102:1016-1023 (1998)) or can cause loss of drug exposure due to autoinduction. Characterizing the induction potential of discovery or development drug candidates has become an important screen throughout the pharmaceutical industry. […]
Cells in each flask are washed with PBS and 4 mL of Trypsin-EDTA (0.25%) is added and incubated for one minute at room temperature. […] Cells are then counted and diluted in media to 3.0 x 10^5 cells/mL. […] After fifteen minutes, plates are read on a Viewlux (Perkin-Elmer) plate reader.
Rifampicin (10 µM), a well known agonist of PXR, is included in each plate as an internal standard and positive control. The data was then expressed as percent activation (%Act), where the total signal is the signal from the 10 µM rifampicin and the blank signal is that from the DMSO vehicle. %Act = (Compound signal-Blank signal)/(Toal signal-Blank signal) × 100% [formula] […]

NC(=O)[C@@H](CCC(F)(F)F)N(Cc1ccc(-c2ncon2)cc1F)S(=O)(=O)c1ccc(Cl)cc1 [(2R)-2-[[(4-chlorophenyl)sulfonyl][[2-fluoro-4-(1,2,4-oxadiazol-3-yl)phenyl]methyl]amino]-5,5,5-trifluoropentanamide]
EC20A (20% of the Rifampicin response at 10 µM): 6.9 µM
EC60A (60% of the Rifampicin response at 10 µM): greater than 16.7 µM
